Measured values reported in US20130065818A1, “Arylamide Compounds And Compositions And Uses Thereof” (POLYMEDIX, priority 2006, published 2013).
Values after ≈ are worked out from the molar mass of the structure shown. Where two headings read alike, the source gives them in different places.

Experiments:
[1] = tested on: Staphylococcus epidermidis (Coagulase-negative Staphylococcus) fluoroquinolone-resistant; assay: MIC, 25 ocular isolates, broth microdilution (Example 8); format: cell-based
How it was run: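 Broth microdilution in Mueller-Hinton broth, polypropylene plates, inoculum from 0.5 McFarland suspension diluted 0.05 ml into 5 ml; final test agent 64–0.0625 μg/ml (128–0.125 μg/ml for P. aeruginosa) in 0.01% acetic acid, 0.2% BSA diluent. Incubated 37° C overnight; MIC read visually as lowest concentration inhibiting visible growth.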

[2] = tested on: Streptococcus viridans group; assay: as above; format: cell-based
Protocol: Mueller-Hinton Broth supplemented with 2% lysed horse blood in tubes was inoculated with 25 ocular isolates of Streptococcus pneumoniae, Streptococcus viridans group, and Moraxella species (including Moraxella catarrhalis) plus two controls (Staphylococcus aureus and E. coli) and incubated at 37° C. overnight. Additionally, Mueller-Hinton Broth in tubes was inoculated with two controls (Staphylococcus aureus and E. coli) and incubated at 37° C. overnight on a shaker set at 250 rpm.
On the day of testing, a 640 μg/ml (1280 μg/ml for Serratia marcescens and Pseudomonas aeruginosa) concentration was prepared from a 1% stock solution in 0.01% acetic acid, 0.2% BSA in polypropylene tubes.
Serial doubling dilutions in 0.01% acetic acid, 0.2% BSA in 96 well polypropylene plates, which are used as reservoirs for the inoculation of the test plates, were carried out to obtain serial dilutions of test agents at 10 times the required test concentrations: 640, 320, 160, 80, 40, 20, 10, 5, 2.5, 1.25, and 0.625 μg/ml (1280, 640, 320, 160, 80, 40, 20, 10, 5, 2.5, and 1.25 μg/ml for Serratia marcescens and Pseudomonas aeruginosa).
Ten μl of diluted 10×test agents was added to each well of one row of the 96 well polypropylene plates from column 2 to column 12 (column 1 is a control for bacteria alone, with no peptide). Test agent concentrations in columns 2-12 were as follows: 64, 32, 16, 8, 4, 2, 1, 0.5, 0.25, 0.125, and 0.0625 μg/ml (128, 64, 32, 16, 8, 4, 2, 1, 0.5, 0.25, and 0.125 μg/ml for Serratia marcescens and Pseudomonas aeruginosa). The same peptide was in each of the 8 rows. One plate contained dilutions of one test agent and 8 bacterial isolates.
On the day of testing, the overnight bacterial broth cultures of Streptococcus pneumoniae, Streptococcus viridans and Moraxella species (including Moraxella catarrhalis) plus two controls (Staphylococcus aureus and E. coli) were diluted in 5 ml of trypticase soy broth to yield turbidity equal to a 0.5 McFarland standard. The final inoculum for MIC testing for Streptococcus pneumoniae, Streptococcus viridans and Moraxella species (including Moraxella catarrhalis) was achieved by placing 0.1 ml of the turbidity adjusted sample to 5 ml of Mueller-Hinton broth containing 2% lysed horse red blood cells.
Ninety μl of the bacterial suspensions was dispensed in each well from column 1 to column 12. Each bacterial isolate was placed in one row of a 96 well polypropylene plate containing the test agents. The plates were placed on shaker at 15 minutes at room temperature, and then incubated at 37° C. overnight. MICs were determined visually as the lowest concentration of drug that inhibits visible bacterial growth.

N=C(N)NCCCCC(=O)Nc1cc(C(F)(F)F)cc(NC(=O)c2cc(C(=O)Nc3cc(C(F)(F)F)cc(NC(=O)CCCCNC(=N)N)c3O[C@@H]3CCNC3)ncn2)c1O[C@@H]1CCNC1 [Oligomer 4]
MIC, sorted list for MIC50 and MIC90 Determinations (QRSE-A) ([1]; 25 isolates sorted ascending, Row 1-25, <0.0625 was Replaced with 0.03125): 0.25 µg/mL | MIC50 ([1]; 25 isolates, Row 13): 0.125 µg/mL (≈ 0.133 µM) | MIC90 ([1]; 25 isolates, Row 22): 0.25 µg/mL (≈ 0.267 µM) | Range of MICs ([1]; 25 isolates, Summary of Results, <0.0625 was Replaced with 0.03125): 0.03125 to 0.25 µg/mL | MIC ([1]; Staphylococcus epidermidis, 25 ocular isolates, read-out: Median MIC): ≤ 0.25 µg/mL | MIC ([1]; Staphylococcus epidermidis, isolate 1—E515, read-out: MIC): 0.125 µg/mL (≈ 0.133 µM) | MIC ([1]; Staphylococcus epidermidis, isolate 2—E514, read-out: MIC): < 0.0625 µg/mL | MIC ([1]; Staphylococcus epidermidis, isolate 3—E513, read-out: MIC): 0.125 µg/mL (≈ 0.133 µM) | MIC ([1]; Staphylococcus epidermidis, isolate 4—E510, read-out: MIC): < 0.0625 µg/mL | MIC ([1]; Staphylococcus epidermidis, isolate 5—E509, read-out: MIC): 0.125 µg/mL (≈ 0.133 µM) | MIC ([1]; Staphylococcus epidermidis, isolate 6—E508, read-out: MIC): 0.125 µg/mL (≈ 0.133 µM) | MIC ([1]; Staphylococcus epidermidis, isolate 7—E505, read-out: MIC): 0.125 µg/mL (≈ 0.133 µM) | MIC ([1]; Staphylococcus epidermidis, isolate 8—E503, read-out: MIC): 0.125 µg/mL (≈ 0.133 µM) | MIC ([1]; Staphylococcus epidermidis, isolate 9—E502, read-out: MIC): 0.125 µg/mL (≈ 0.133 µM) | MIC ([1]; Staphylococcus epidermidis, isolate 10—E499, read-out: MIC): 0.125 µg/mL (≈ 0.133 µM) | MIC ([1]; Staphylococcus epidermidis, isolate 11—E498, read-out: MIC): 0.125 µg/mL (≈ 0.133 µM) | MIC ([1]; Staphylococcus epidermidis, isolate 12—E494, read-out: MIC): < 0.0625 µg/mL | MIC ([1]; Staphylococcus epidermidis, isolate 13—E493, read-out: MIC): 0.125 µg/mL (≈ 0.133 µM) | MIC ([1]; Staphylococcus epidermidis, isolate 14—E485, read-out: MIC): 0.125 µg/mL (≈ 0.133 µM) | MIC ([1]; Staphylococcus epidermidis, isolate 15—E487, read-out: MIC): 0.125 µg/mL (≈ 0.133 µM) | MIC ([1]; Staphylococcus epidermidis, isolate 16—E486, read-out: MIC): < 0.0625 µg/mL | MIC ([1]; Staphylococcus epidermidis, isolate 17—E480, read-out: MIC): 0.125 µg/mL (≈ 0.133 µM) | MIC ([1]; Staphylococcus epidermidis, isolate 18—E475, read-out: MIC): 0.25 µg/mL (≈ 0.267 µM) | MIC ([1]; Staphylococcus epidermidis, isolate 19—E471, read-out: MIC): 0.125 µg/mL (≈ 0.133 µM) | MIC ([1]; Staphylococcus epidermidis, isolate 20—E458, read-out: MIC): 0.125 µg/mL (≈ 0.133 µM) | MIC ([1]; Staphylococcus epidermidis, isolate 21—E452, read-out: MIC): 0.25 µg/mL (≈ 0.267 µM) | MIC ([1]; Staphylococcus epidermidis, isolate 22—E450, read-out: MIC): 0.125 µg/mL (≈ 0.133 µM) | MIC ([1]; Staphylococcus epidermidis, isolate 23—E440, read-out: MIC): 0.25 µg/mL (≈ 0.267 µM) | MIC ([1]; Staphylococcus epidermidis, isolate 24—E446, read-out: MIC): 0.125 µg/mL (≈ 0.133 µM) | MIC ([1]; Staphylococcus epidermidis, isolate 25—E444, read-out: MIC): 0.25 µg/mL (≈ 0.267 µM) | MIC ([1]; Staphylococcus epidermidis, n=25 per group, read-out: Median MIC): 0.125 µg/mL (≈ 0.133 µM) | MIC50 ([1]; Staphylococcus epidermidis, 25 isolates, Summary of Results, read-out: MIC50): 0.125 µg/mL (≈ 0.133 µM) | MIC90 ([1]; Staphylococcus epidermidis, 25 isolates, Summary of Results, read-out: MIC90): 0.25 µg/mL (≈ 0.267 µM) | MIC ([1]; Staphylococcus epidermidis, 25 isolates, Summary of Results, read-out: Median MIC): 0.125 µg/mL (≈ 0.133 µM) | MIC50 ([1]; n=25 per group): 0.125 µg/mL (≈ 0.133 µM) | MIC90 ([1]; n=25 per group): 0.25 µg/mL (≈ 0.267 µM) | Range of MICs ([1]; n=25 per group): 0.03125 to 0.25 µg/mL | MIC50 ([2]; 25 isolates, Row 13): 4 µg/mL (≈ 4.27 µM) | MIC90 ([2]; 25 isolates, Row 22, >64 was Replaced with 128): 8 µg/mL (≈ 8.54 µM) | Range of MICs ([2]; 25 isolates, Summary of Results, >64 was Replaced with 128): 1 to 32 µg/mL | MIC ([2]; Streptococcus viridans, 25 ocular isolates, Mueller-Hinton broth with 2% lysed horse red blood cells, read-out: Median MIC): 4 µg/mL (≈ 4.27 µM) | MIC ([2]; Streptococcus viridans, isolate 1—K1684, read-out: MIC): 2 µg/mL (≈ 2.13 µM) | MIC ([2]; Streptococcus viridans, isolate 2—K1680, read-out: MIC): 4 µg/mL (≈ 4.27 µM) | MIC ([2]; Streptococcus viridans, isolate 3—E546, read-out: MIC): 1 µg/mL (≈ 1.07 µM) | MIC ([2]; Streptococcus viridans, isolate 4—E272, read-out: MIC): 2 µg/mL (≈ 2.13 µM) | MIC ([2]; Streptococcus viridans, isolate 5—E506, read-out: MIC): 16 µg/mL (≈ 17.1 µM) | MIC ([2]; Streptococcus viridans, isolate 6—E496, read-out: MIC): 1 µg/mL (≈ 1.07 µM) | MIC ([2]; Streptococcus viridans, isolate 7—E456, read-out: MIC): 4 µg/mL (≈ 4.27 µM) | MIC ([2]; Streptococcus viridans, isolate 8—E432, read-out: MIC): 4 µg/mL (≈ 4.27 µM) | MIC ([2]; Streptococcus viridans, isolate 9—E423, read-out: MIC): 4 µg/mL (≈ 4.27 µM) | MIC ([2]; Streptococcus viridans, isolate 10—E418, read-out: MIC): 8 µg/mL (≈ 8.54 µM) | MIC ([2]; Streptococcus viridans, isolate 11—E412, read-out: MIC): 2 µg/mL (≈ 2.13 µM) | MIC ([2]; Streptococcus viridans, isolate 12—E409, read-out: MIC): 8 µg/mL (≈ 8.54 µM) | MIC ([2]; Streptococcus viridans, isolate 13—E405, read-out: MIC): 4 µg/mL (≈ 4.27 µM) | MIC ([2]; Streptococcus viridans, isolate 14—E404, read-out: MIC): 32 µg/mL (≈ 34.2 µM) | MIC ([2]; Streptococcus viridans, isolate 15—E396, read-out: MIC): 16 µg/mL (≈ 17.1 µM) | MIC ([2]; Streptococcus viridans, isolate 16—E262, read-out: MIC): 1 µg/mL (≈ 1.07 µM) | MIC ([2]; Streptococcus viridans, isolate 17—E362, read-out: MIC): 4 µg/mL (≈ 4.27 µM) | MIC ([2]; Streptococcus viridans, isolate 18—E359, read-out: MIC): 4 µg/mL (≈ 4.27 µM) | MIC ([2]; Streptococcus viridans, isolate 19—E348, read-out: MIC): 8 µg/mL (≈ 8.54 µM) | MIC ([2]; Streptococcus viridans, isolate 20—E344, read-out: MIC): 4 µg/mL (≈ 4.27 µM) | MIC ([2]; Streptococcus viridans, isolate 21—E308, read-out: MIC): 4 µg/mL (≈ 4.27 µM) | MIC ([2]; Streptococcus viridans, isolate 22—E294, read-out: MIC): 4 µg/mL (≈ 4.27 µM) | MIC ([2]; Streptococcus viridans, isolate 23—E292, read-out: MIC): 4 µg/mL (≈ 4.27 µM) | MIC ([2]; Streptococcus viridans, isolate 24—E285, read-out: MIC): 4 µg/mL (≈ 4.27 µM) | MIC ([2]; Streptococcus viridans, isolate 25—E265, read-out: MIC): 1 µg/mL (≈ 1.07 µM) | MIC ([2]; Streptococcus viridans, n=25 per group, read-out: Median MIC): 4 µg/mL (≈ 4.27 µM) | MIC90 ([2]; Streptococcus viridans, 25 isolates, Summary of Results, >64 was Replaced with 128, read-out: MIC90): 8 µg/mL (≈ 8.54 µM) | MIC50 ([2]; Streptococcus viridans, 25 isolates, Summary of Results, read-out: MIC50): 4 µg/mL (≈ 4.27 µM) | MIC ([2]; Streptococcus viridans, 25 isolates, Summary of Results, read-out: Median MIC): 4 µg/mL (≈ 4.27 µM) | MIC50 ([2]; n=25 per group): 4 µg/mL (≈ 4.27 µM) | MIC90 ([2]; n=25 per group): 8 µg/mL (≈ 8.54 µM) | Range of MICs ([2]; n=25 per group): 1 to 32 µg/mL
